Source: patent US20170081679A1, “METHODS OF IMPROVING NUCLEASE MEDIATED HOMOLOGOUS RECOMBINATION” (priority 2015, published 2017)
“Also recorded” adds a separate entry of the source.

Experiments:
[1] = test system: RLL-EGFP knock-in founder rabbits; test: Germline transmission and allele distribution in embryos parented by RLL-EGFP founders; assay type: in vivo, rabbit
Source text: (§1) At the time of submitting this manuscript, five RLL-EGFP founders, three from the RS-1 treatment group, two from the non-treatment group, have reached sexual maturity. We bred these RLL-EGFP founder animals with WT counterparts.
To ultimately determine the frequencies of different types of alleles (i.e. WT, indel and knock-in) in the germ cells of knock-in animals, we used WT animals to breed with five RLL knock-in founders, 2 derived without RS-1 treatment and the other 3 with RS-1 treatment. Embryos were produced from founders of the RS-1 treated group (n=72) and the non-treated group (n=66), sequenced, and categorized as WT, indel, or knock-in based on the allele sequence (FIG. 2I). Similar percentage of WT alleles (17 vs. 18%) are found between these two groups. […] It appears that knock-in events take place at the expense of KO because the overall mutation rates (indel+knock-in) were similar between these two groups.

[2] = test system: rabbit RLL; test: Cas9 mediated RLL-EGFP knock-in animal production (embryo transfer); assay type: in vivo; conditions: RS-1 7.5 μM
Method: In one embodiment, we used RS-1 at 7.5 μM for the in vivo experiments. The sgRNA and donor DNA were used for knocking in EGFP to the rabbit RLL.
In the control group, we transferred a total of 373 embryos to synchronized recipient rabbits and obtained 43 kits. Twenty-nine of these 43 kits (67%) carried indel alleles but with on knock-in alleles. Three are proven as knock-in founders after PCR and sequencing (FIG. 2A). Of note, these three knock-in founders also carry indel alleles. The overall knock-in efficiency is 0.8% calculated by total knock-in founders/total embryos transferred, or 7.0% calculated by total knock-in founders/total kits born.
In the RS-1 treatment group (FIG. 2A), we transferred 146 embryos and obtained 38 kits, 18 of which carried indel but no knock-in alleles (47%). Similar to the in vitro results, the knock-in success rate was multifold higher than that in the control group. A total of 10 knock-in founders were produced, with the knock-in efficiency of 6.8% calculated by total knock-in founders/total embryos transferred, or 26.3% calculated by total knock-in founders/total kits born.

[3] = test system: rabbit embryos (CFTR locus); test: Cas9 mediated knock-in of CFTRdelF508 to rabbit CFTR locus in embryos in vitro; assay type: cell-based; conditions: CFTRdelF508, Cas9, RS-1 7.5 μM; control 13%
Source text: In another embodiment, we tested the effects of RS-1 supplementation on Cas9 mediated knock-in of CFTRdelF508, the most frequent mutation type identified in human cystic fibrosis (CF) patients, to the rabbit CFTR locus (FIG. 4).

[4] = test system: rbApoAI locus; test: TALEN mediated hApoAII knock-in animal production (embryo transfer); assay type: in vivo, rabbit; conditions: RS-1 treatment
Source text: In another embodiment, we tested RS-1 on the TALEN system in vivo. The same TALEN pairs and donor DNAs used in the in vitro work were used to product hApoAII knock-in animals.
Without RS-1 treatment, only one founder animal was produced out of 227 embryos transferred (FIG. 2A). The knock-in efficiency was 0.4% calculated by total knock-in founders/total embryos transferred or 6.3% calculated by total knock-in founders/total kits born.
After RS-1 treatment, we transferred a total of 145 embryos and obtained 17 kits. Seven out of 17 kits carried indel but no knock-in alleles (41%).

[5] = test system: rabbit embryos; test: Embryo development (blastocyst rate) after microinjection and treatment; assay type: cell-based; conditions: 20 h; for blastocyst development: control 61.2%
Method: (§2) In one embodiment, we designed sgRNA targeting a ROSA26 like locus (RLL) in the rabbit genome (FIG. 2E). We next determined the effects of SCR7, an NHEJ inhibitor, and RS-1, an HDR enhancer on the knock-in success rates. Donor template DNAs were co-microinjected with Cas9 mRNA and sgRNA for RLL locus. After injection, the embryos were treated for 20 h in a serial concentration of SCR7: 0 μM (control), 20 μM, 40 μM, and 80 μM, or in RS-1 at 0 μM (control), 7.5 μM, and 15 μM.
(§3) In one embodiment, we microinjected 79 embryos with RAD51 mRNA, in addition to sgRNA, Cas9 mRNA and donor DNAs (FIG. 3A). RAD51 recombinase is a key player for homologous recombination and the repair of DNA DSBs (reference 13). Since it has been reported that RS-1 stimulates RAD51 (reference 12), we reasoned that including RAD51 mRNA in the microinjection mix would yield similar improvements on the knock-in efficiency as achieved with RS-1.

[6] = test system: rabbit embryos (ROSA26 like locus, RLL); test: Cas9 mediated RLL-EGFP knock-in in rabbit embryos in vitro; assay type: cell-based
Method: as §2, §3

[7] = test system: founder rabbits; test: Health and reproduction of founder animals; assay type: in vivo
Source text: as §1
In sum, RS-1 is effective on improving knock-in rates in both the TALEN and the Cas9 mediated genome editing systems.

[8] = test system: rabbit embryos (rbApoAI locus); test: TALEN mediated knock-in of hApoAII to rbApoAI locus in embryos in vitro; assay type: cell-based; conditions: RS-1 7.5 μM, control 7%
Source text: In another embodiment, we tested the effects of RS-1 in a TALEN mediated knock-in system. We designed and validated TALEN pairs targeting rbApoAI locus for knocking in the hApoAII coding sequence (FIG. 2B).

## O=C(Nc1ccc(Br)cc1)c1ccc(Br)c(S(=O)(=O)NCc2ccccc2)c1 [RS-1]
[1]; embryos (n=72) parented by founders of RS-1 treated group, other group 18%
  percentage of WT alleles: 17%
[1]; embryos (n=72) parented by founders of RS-1 treatment group bred with WT, non-treated 14%
  embryos carrying the knock-in allele (knock-in frequency at allele level): 33%
[1]; three animals of RS-1 treatment group, non-treatment 50%
  germline transmitting founder animals: 100%
[2]; 18 of 38 kits, control 67%
  kits carrying indel but no knock-in alleles: 47%
[2]; Cas9, control 0.8%
  knock-in efficiency, total knock-in founders/total embryos transferred: 6.8%
[2]; Cas9, control 7.0%
  knock-in efficiency, total knock-in founders/total kits born: 26.3%
[3]
  percentage of embryos carrying knock-in alleles: 30%
[4]; 7 of 17 kits
  kits carrying indel but no knock-in alleles: 41%
[4]; control 0.4%
  knock-in efficiency, total knock-in founders/total embryos transferred: 2.1%
[4]; control 6.3%
  knock-in efficiency, total knock-in founders/total kits born: 17.6%
[5]; RS-1 7.5 μM
  blastocyst development: 57.6%
[5]; RS-1 15 μM
  blastocyst development: 82.2%
[6]; RS-1 7.5 μM, 20 h, control 4.8%
  knock-in rate: 26.1%
[6]; RS-1 15 μM, 20 h, control 4.8%
  knock-in efficiency: 5.4%
[6]; RS-1 at optimal concentration 7.5 μM, different loci (RLL, ApoAI, CFTR), in vitro
  increase of knock-in efficiency: 2- to 5 fold
[7]; RLL-EGFP and hApoAII founders derived from RS-1 treatment
  abnormalities in founder animals: No abnormalities
[7]; RS-1 treatment of embryos
  toxic effects on overall animal health and reproduction: does not appear to have any toxic effects
[8]
  percentage of embryos carrying knock-in alleles: 15%

## O=c1[nH]c(=S)[nH]c(N=Cc2ccccc2)c1N=Cc1ccccc1 [SCR7]
[5]; SCR7 20, 40, 80 μM, judged by blastocyst rates
  effect on embryo development: no effects on embryo development
[5]; SCR7 treatment conditions (up to 80 μM)
  blastocyst rate: 62-72%
[6]; SCR7 20, 40, 80 μM for 20 h vs control
  effect on overall knock-in efficiency: minimal effects; also recorded: no significant effects
[6]; SCR7 treatment groups 20-80 μM, 20 h, control 7.1%
  overall knock-in efficiency: 7.7-9.4%
